For orientation: inhibition means the change of the read-out against control, counted positive when it falls.

The subject of test [1] is Escherichia coli K-12. Put plainly: Inhibition of acrAB AcrAB-TolC in Escherichia coli K-12 3-AG100 overexpressing acrAB AcrAB-TolC assessed as [3H]TMG accumulation at 800 uM by scintillation counter method.
Test [2] has as its system Escherichia coli K-12. Put plainly: Inhibition of acrAB AcrAB-TolC-mediated Nile Red efflux in marR mutant containing Escherichia coli K-12 3-AG102 overexpressing acrAB AcrAB-TolC assessed as time needed for 50% efflux after energization with 50 mM glucose at 1000 uM by spectrofluorometric assay.
The subject of test [3] is Escherichia coli K-12. The test is described as follows: Inhibition of acrAB AcrAB-TolC-mediated Nile Red efflux in marR mutant containing Escherichia coli K-12 3-AG102 overexpressing acrAB AcrAB-TolC assessed as time needed for 50% efflux after energization with 50 mM glucose at 200 uM by spectrofluorometric assay.
For test [4], the system named is Escherichia coli K-12. The test is described as follows: Inhibition of acrAB AcrAB-TolC in Escherichia coli K-12 3-AG100 overexpressing acrAB AcrAB-TolC assessed as [3H]TMG accumulation at 200 uM by scintillation counter method.
The test system of test [5] is Escherichia coli K-12. Put plainly: Inhibition of acrAB AcrAB-TolC in Escherichia coli K-12 3-AG100 overexpressing acrAB AcrAB-TolC assessed as [3H]TMG accumulation at 100 uM by scintillation counter method.
In test [6] the test system is Escherichia coli K-12. The test is described as follows: Inhibition of acrAB AcrAB-TolC-mediated Nile Red efflux in Escherichia coli K-12 3-AG100 overexpressing acrAB AcrAB-TolC assessed as time needed for 50% efflux after energization with 50 mM glucose at 100 uM by spectrofluorometric assay.
Test [7] concerns Escherichia coli K-12. The test is described as follows: Inhibition of acrAB AcrAB-TolC-mediated Nile Red efflux in Escherichia coli K-12 3-AG100 overexpressing acrAB AcrAB-TolC assessed as time needed for 50% efflux after energization with 50 mM glucose by spectrofluorometric assay.
Test [8] concerns Escherichia coli K-12. Put plainly: Inhibition of acrAB AcrAB-TolC-mediated Nile Red efflux in Escherichia coli K-12 3-AG100 overexpressing acrAB AcrAB-TolC assessed as time needed for 50% efflux after energization with 50 mM glucose upto 2 mM by spectrofluorometric assay.
The subject of test [9] is Escherichia coli K-12. The test is described as follows: Inhibition of acrAB AcrAB-TolC-mediated Nile Red efflux in Escherichia coli K-12 3-AG100 overexpressing acrAB AcrAB-TolC assessed as time needed for 50% efflux after energization with 50 mM glucose at 800 uM by spectrofluorometric assay.

The source made the active and inactive calls. The rule behind the calls is not given here. Residues, ends and D or L forms follow the SMILES beside them. *: point of attachment. βNA = c1ccc2cc(N*)ccc2c1 Where only a bound is given, the exact number is not on record here.

As for `C[C@H]1c2cccc(O)c2C(=O)C2=C(O)[C@]3(O)C(=O)C(C(N)=O)=C(O)[C@@H](N(C)C)[C@@H]3[C@@H](O)[C@@H]21`, the inhibition in the test with Escherichia coli K-12 [1] is 44%. In addition, the TIME with Escherichia coli K-12 [2] is over 0.0556 h; in the test on Escherichia coli K-12 [3] it was 0.0472 h.
Regarding `N#CC(C#N)=NNc1cccc(Cl)c1`, in the test with Escherichia coli K-12 [4], the inhibition was determined as 4.5%.
In the case of `N=C(N)NCCC[C@H](NC(=O)[C@@H](N)Cc1ccccc1)C(=O)Nc1ccc2ccccc2c1` (H-Phe-Arg-βNA), the inhibition is 60% in the test with Escherichia coli K-12 [5] and “Dose-dependent effect” in the test on Escherichia coli K-12 [7]. Moreover, the inhibition result with Escherichia coli K-12 [6] was “Active”.
On to `CN(C)[C@@H]1C(O)=C(C(N)=O)C(=O)[C@@]2(O)C(O)=C3C(=O)c4c(O)cccc4[C@@](C)(O)[C@H]3C[C@@H]12`, for which, in the test with Escherichia coli K-12 [1], the inhibition turned out to be 27%. The results for the TIME in the test with Escherichia coli K-12 [2] and with Escherichia coli K-12 [3] were over 0.0556 h and 0.025 h, respectively.
As to `CC(=O)NC[C@H]1CN(c2ccc(N3CCOCC3)c(F)c2)C(=O)O1`, the inhibition entry in the test on Escherichia coli K-12 [8] is “inactive”.
`COc1cccc2c1C(=O)c1c(O)c3c(c(O)c1C2=O)C[C@@](O)(C(=O)CO)C[C@@H]3O[C@H]1C[C@H](N)[C@H](O)[C@H](C)O1`: the TIME with Escherichia coli K-12 [2] and in the test with Escherichia coli K-12 [3] was over 0.0556 h throughout. For the same compound, in the test with Escherichia coli K-12 [5], the inhibition came out at 78%.
`CN(C)[C@@H]1C(O)=C(C(N)=O)C(=O)[C@@]2(O)C(O)=C3C(=O)c4c(O)ccc(Cl)c4[C@@](C)(O)[C@H]3C[C@@H]12`: the values for the TIME in the test with Escherichia coli K-12 [2] and in the test with Escherichia coli K-12 [3] were over 0.0556 h and 0.0556 h, respectively. In addition, the inhibition with Escherichia coli K-12 [4] amounted to 14%.
As to `CN(C)c1ccc(O)c2c1C[C@H]1C[C@H]3[C@H](N(C)C)C(O)=C(C(N)=O)C(=O)[C@@]3(O)C(O)=C1C2=O`, the TIME in the test on Escherichia coli K-12 [2] and in the test on Escherichia coli K-12 [3] was over 0.0556 h throughout. Moreover, the inhibition in the test on Escherichia coli K-12 [4] was 45%.
As for `CC[C@H]1OC(=O)[C@H](C)[C@@H](O[C@H]2C[C@@](C)(OC)[C@@H](O)[C@H](C)O2)[C@H](C)[C@@H](O[C@@H]2O[C@H](C)C[C@H](N(C)C)[C@H]2O)[C@](C)(O)C[C@@H](C)C(=O)[C@H](C)[C@@H](O)[C@]1(C)O`, the inhibition result with Escherichia coli K-12 [8] is “inactive”.
Consider `c1ccc2c(CN3CCNCC3)cccc2c1`, for which the inhibition in the test with Escherichia coli K-12 [1] is 53%; in the test on Escherichia coli K-12 [7], “Dose-dependent effect”. For the same compound, the TIME is over 0.0556 h in the test with Escherichia coli K-12 [2] and 0.0278 h with Escherichia coli K-12 [3]. Further, in the test on Escherichia coli K-12 [9], the inhibition result is “Active”.
In the case of `c1ccc([P+](c2ccccc2)(c2ccccc2)c2ccccc2)cc1`, the inhibition in the test on Escherichia coli K-12 [1] stood at 97%. For the same compound, the values for the TIME in the test on Escherichia coli K-12 [2] and in the test on Escherichia coli K-12 [3] were over 0.0556 h and 0.0292 h, respectively.

For the origin of these results see ChEMBL document CHEMBL1671720, “Optimized Nile Red efflux assay of AcrAB-TolC multidrug efflux system shows competition between substrates” (Antimicrob Agents Chemother, 2010).
